Tests used:
[1] = test system: GluC (2-keto-L-gulonate reductase); experiment: NADH consumption at […] nm, Konelab analyser; type: biochemical, Aspergillus niger; settings: 400 uM NADH, 50 mM Tris pH 7
[2] = test system: GluC (2-keto-L-gulonate reductase); experiment: NADH formation at […] nm, Konelab analyser; type: biochemical, Aspergillus niger; settings: 400 uM NAD+, 50 mM Tris pH 8; reverse direction

Row | Km [1] [mM] | SMILES | Km [2] [mM]
1 | 30 | O=C(O)C(=O)[C@@H](O)[C@H](O)[C@@H](O)CO [2-keto-L-gulonate] | –
2 | – | O=C(O)[C@H](O)[C@@H](O)[C@H](O)[C@@H](O)CO [L-idonate] | 20

— publication PMC4870679, “A novel pathway for fungal D-glucuronate catabolism contains an L-idonate forming 2-keto-L-gulonate reductase” (Scientific Reports, 2016)
